Experiments:
[1] = biological target: T1, Acetylcholine-binding protein (Lymnaea stagnalis, UniProt P58154)
Description: Binding affinity to Lymnaea stagnalis His6-AChBP expressed in Bac-to-Bac baculovirus expression system by surface plasmon resonance biosensor assay

[2] = biological target: Neuronal acetylcholine receptor subunit alpha-7 (Homo sapiens, UniProt P36544); experiment: biochemical
Description: Displacement of [3H]-MLA from human alpha7 nAChR expressed in human SH-SY5Y cells

[3] = biological target: T1, Acetylcholine-binding protein; remark: listed apart in the source
Description: Displacement of [3H]epibatidine from Lymnaea stagnalis His6-AChBP expressed in Bac-to-Bac baculovirus expression system

Neuronal acetylcholine receptor subunit alpha-7, sequence (P36544 whole entry): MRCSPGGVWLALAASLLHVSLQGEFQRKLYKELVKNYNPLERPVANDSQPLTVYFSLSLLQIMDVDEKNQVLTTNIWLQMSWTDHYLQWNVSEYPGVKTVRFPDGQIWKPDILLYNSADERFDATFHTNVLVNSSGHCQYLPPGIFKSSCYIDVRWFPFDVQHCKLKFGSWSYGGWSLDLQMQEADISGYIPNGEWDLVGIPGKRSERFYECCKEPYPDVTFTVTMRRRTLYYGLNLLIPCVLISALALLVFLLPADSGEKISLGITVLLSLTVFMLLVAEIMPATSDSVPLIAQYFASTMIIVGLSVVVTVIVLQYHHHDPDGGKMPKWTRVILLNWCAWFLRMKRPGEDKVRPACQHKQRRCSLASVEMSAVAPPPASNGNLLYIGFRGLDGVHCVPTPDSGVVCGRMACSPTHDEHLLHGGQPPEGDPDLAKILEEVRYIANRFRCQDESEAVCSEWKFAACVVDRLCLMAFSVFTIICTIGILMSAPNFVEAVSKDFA
T1 sequence (P58154 whole entry): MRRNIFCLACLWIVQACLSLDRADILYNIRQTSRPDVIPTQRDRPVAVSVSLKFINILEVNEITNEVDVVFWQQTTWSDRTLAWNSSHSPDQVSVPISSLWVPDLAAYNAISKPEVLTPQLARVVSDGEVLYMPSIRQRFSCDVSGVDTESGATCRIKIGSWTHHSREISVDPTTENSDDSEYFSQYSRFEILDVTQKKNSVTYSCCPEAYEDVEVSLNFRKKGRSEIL

Row | Structure (SMILES) | Kd [1] | Ki [2] | Ki [3]
1 | O=C(Nc1ccccc1)OCCCc1cccnc1 | 741000 nM | 14500 nM | 282000 nM
2 | O=C(Nc1ccc(Br)cc1)OCCCc1cccnc1 | 50100 nM | 6920 nM | > 10000 nM
3 | O=C(Nc1ccccc1)O[C@H]1CN2CCC1CC2 | 29500 nM | – | 7940 nM
4 | O=C(Nc1ccc(Br)cc1)O[C@H]1CN2CCC1CC2 | 4470 nM | 38.9 nM | 3020 nM
5 | O=C(Nc1ccccc1)N[C@H]1CN2CCC1CC2 | 18600 nM | 110 nM | 5500 nM
6 | O=C(Nc1ccc(Br)cc1)N[C@H]1CN2CCC1CC2 | 4900 nM | 43.7 nM | 5130 nM
7 | O[C@@H]1C2CCN(CC2)[C@H]1Cc1cccnc1 | 316 nM | 3310 nM | 251 nM
8 | N[C@@H]1C2CCN(CC2)[C@H]1Cc1cccnc1 | 550 nM | 2290 nM | 468 nM
9 | N[C@H]1CN2CCC1CC2 | 74100 nM | 6310 nM | 110000 nM
10 | NCCc1cccnc1 | 148000 nM | 8510 nM | 93300 nM
11 | O=C(N[C@@H]1C2CCN(CC2)[C@H]1Cc1cccnc1)c1ccccc1 | 219 nM | – | 240 nM
12 | O=C(N[C@@H]1C2CCN(CC2)[C@H]1Cc1cccnc1)c1cccs1 | 240 nM | 43.7 nM | 148 nM
13 | O=C(Nc1ccccc1)O[C@@H]1C2CCN(CC2)[C@H]1Cc1cccnc1 | 100 nM | 18.6 nM | 61.7 nM
14 | O=C(Nc1ccccc1)N[C@@H]1C2CCN(CC2)[C@H]1Cc1cccnc1 | 871 nM | 28.8 nM | 562 nM
15 | O=C(Nc1ccc(Br)cc1)N[C@@H]1C2CCN(CC2)[C@H]1Cc1cccnc1 | 437 nM | 25.7 nM | 708 nM
16 | O=C(N[C@@H]1C2CCN(CC2)[C@H]1Cc1cccnc1)Oc1ccccc1 | 347 nM | 37.2 nM | 501 nM
17 | CN(C)CCc1cccnc1 | 6030 nM | 3160 nM | 3160 nM
18 | O=C(N[C@@H]1C2CCN(CC2)[C@H]1Cc1cccnc1)c1cc2ccccc2o1 [BRADANICLINE] | 20 nM | – | 14.5 nM
19 | O=C(N[C@H]1CN2CCC1CC2)c1ccc(Cl)cc1 [PNU-282987] | 3630 nM | 24.5 nM | 2090 nM

— ChEMBL document CHEMBL1255197, “Surface plasmon resonance biosensor based fragment screening using acetylcholine binding protein identifies ligand efficiency hot spots (LE hot spots) by deconstruction of nicotinic acetylcholine receptor α7 ligands” (J Med Chem, 2010)
